Measurements reported in patent publication US20170046476A1, “SYSTEMS, APPARATUS, AND METHODS FOR ANALYZING AND PREDICTING CELLULAR PATHWAYS” (priority 2015, published 2017).

System: STHdh Q111 cells
Test: Multiparameter high content imaging for the analysis of cell apoptosis (calcein-AM / propidium iodide / Hoechst)
Format: cell-based, mouse
Conditions: for apoptosis / percentage of dead cells (propidium iodide-positive cells): STHdh Q111 cells treated with FTY720-P vs untreated (vehicle), 24 hours, serum-free medium, P-value=7.98×10^−5, two-sided student t-test, two independent experiments, twenty replicates each
From the text: FIG. 16B is a bar plot comparing percentages of dead cells in STHdh Q111 cells not treated with an analogue of S1P (FTY720-P) to STHdh Q111 cells treated with FTY720-P in accordance with some embodiments. […] In contrast, this approach inferred the underlying network of sphingolipid dysregulation and the role of S1P in diseased cells without any prior assumptions.
FIG. 17 is a series of images illustrating cell viability, morphology, and shape in accordance with some embodiments. Images 1702, 1704, and 1706 show STHdh Q7 cells, STHdh Q111 cells, and STHdh Q111 cells treated with FTY720-P, respectively, following treatment with calcein to detect viable cells and monitor changes in cell shape and morphology. Images 1708, 1710, and 1712 show STHdh Q7 cells, STHdh Q111 cells, and STHdh Q111 cells treated with FTY720-P, respectively, following treatment with propidium iodide, which stains late apoptotic cells with damaged membranes. As shown, hidden components inferred by using the described approach rescue diseased cells.
According to some embodiments, STHdhQ7/Q7 and STHdhQ111/Q111 striatal cells were trypsinized, harvested in pre-warmed growth medium and quantified using an automated cell counter (available from, e.g., Countess II, Life Technologies). Six thousand cells per well were seeded in sterile, black 96-well microplates with flat, clear bottom. After 24 hours, the complete medium was removed and replaced with phenol red- and serum-free medium containing either FTY720 phosphate (available from Sigma-Aldrich) or vehicle (e.g., DMSO, available from Sigma-Aldrich) and cells were incubated for 24 hours at 33° C. A multiple staining solution containing 1 μg/ml calcein-AM, 2 μg/ml propidium iodide and 1.5 μg/ml […] (all available from Life Technologies) was added to detect and quantify live, dead, and total cells, respectively. After 20 minutes in incubation, a Cellomics Arrayscan Platform (available from Thermo Scientific) was used for imaging acquisition. […] Cell loss was expressed as the percentage of propidium iodide-positive cells. […]

FTY720 phosphate [FTY720-P]
apoptosis / percentage of dead cells (propidium iodide-positive cells): significantly decreasing apoptosis
apoptosis / percentage of dead cells (propidium iodide-positive cells) (listed as Phosphorylated FTY720): significantly decrease apoptosis
effect of treating diseased cells (neuroprotection) (STHdh cell line model of Huntington's disease, summary statement): neuroprotective effects
